In patent US7312196B2, “Formulations for amylin agonist peptides” (Amylin Pharmaceuticals, Inc., priority 1998, dated 2007):

How the values were obtained:
Type in all cases: physicochemical
[1] = pH-rate profile: stability of the peptide at pH 4.0-5.5, 45° C.; conditions: 60 mM acetate buffer, 4.1% mannitol, 0.3% m-cresol
Procedure: This example describes two preferred liquid formulations for pramlintide. Major degradation pathways for the peptide are […] and peptide bond hydrolysis. Therefore, the stability of the peptide was investigated in the pH region of 4.0-5.5 at 45° C. […] The following formulation was developed: […]

[2] = adsorption onto glass container in liquid form
Excerpt: However, with regard to amylin agonists or amylins which do have such a tendency when in liquid form, a surfactant should be used in their formulation. These formulations may then be lyophilized. Surfactants frequently cause denaturation of protein, both of hydrophobic disruption and by salt bridge separation. Relatively low concentrations of surfactant may exert a potent denaturing activity, because of the strong interactions between surfactant moieties and the reactive sites on proteins. However, judicious use of this interaction can stabilize proteins against interfacial or surface denaturation. Surfactants which could further stabilize the peptide may optionally be present in the range of about 0.001 to 0.3% (w/v) of the total formulation and include polysorbate 80 (i.e., polyoxyethylene(20) sorbitan monooleate), CHAPS® (i.e., 3-[(3-cholamidopropyl) dimethylammonio] 1-propanesulfonate), Brij® (e.g., Brij 35, which is (polyoxyethylene (23) lauryl ether), poloxamer, or another non-ionic surfactant.

[3] = short term mixing compatibility with insulin in the same syringe; conditions: depending on type of insulin and volume ratio
Excerpt: The formulations reported in Tables A and B are also compatible when mixed in a syringe with commercially available insulin products. […] As outlined by Brange et al, “Insulin Structure and Stability,” in Stability and Characterization of Protein and Peptide Drugs: Case Histories, 1993, Wang et al. (Ed), Plenum Press, NY, insulin has an isoelectric precipitation zone pH range of 4.5-6.5, within 1 pH unit from isoelectric point. Therefore, while not seeking to be bound by theory, if the pH of the insulin product drops from 7.2±0.2 to pH in the isoelectric precipitation range it may cause insulin to precipitate. Thus, clarity of the solution mixture was used as a criteria for preliminary compatibility studies. The insulin volumes used in this study (Table C) cover the maximum and minimum ranges typical for Type I diabetic patients. The formulation with higher buffer capacity (Table C) forms a clear solution faster than the lower buffer capacity formulation. However, at 0.01% of the peptide label strength both formulations form a clear solution with insulin within approximately one minute. In a syringe, one minute can be considered to be instantaneous mixing. The higher label strength of the peptide (0.015% or higher) results in lower dose volume and may require longer than a minute to form a clear solution. […]

- stability of the peptide over the pH range studied [1]: most stable at pH 4.0
- time insulin and peptide formulation can remain in the same syringe retaining activity and stability [3]: at least 24 hours
SMILES: CC[C@H](C)[C@H](NC(=O)[C@@H]1CCCN1C(=O)CNC(=O)[C@H](Cc1ccccc1)NC(=O)[C@H](CC(N)=O)NC(=O)[C@H](CC(N)=O)NC(=O)[C@H](CO)NC(=O)[C@H](CO)NC(=O)[C@H](Cc1c[nH]cn1)NC(=O)[C@@H](NC(=O)[C@H](CC(C)C)NC(=O)[C@H](Cc1ccccc1)NC(=O)[C@H](CC(N)=O)NC(=O)[C@H](C)NC(=O)[C@H](CC(C)C)NC(=O)[C@H](CCCNC(=N)N)NC(=O)[C@H](CCC(N)=O)NC(=O)[C@@H](NC(=O)[C@H](C)NC(=O)[C@@H]1CSSC[C@H](NC(=O)[C@@H](N)CCCCN)C(=O)N[C@@H](CC(N)=O)C(=O)N[C@@H]([C@@H](C)O)C(=O)N[C@@H](C)C(=O)N[C@@H]([C@@H](C)O)C(=O)N1)[C@@H](C)O)C(C)C)C(=O)N[C@@H](CC(C)C)C(=O)N1CCC[C@H]1C(=O)N1CCC[C@H]1C(=O)N[C@H](C(=O)N[C@@H](CC(N)=O)C(=O)N[C@H](C(=O)NCC(=O)N[C@@H](CO)C(=O)N[C@@H](CC(N)=O)C(=O)N[C@H](C(=O)N[C@@H](Cc1ccc(O)cc1)C(N)=O)[C@@H](C)O)C(C)C)[C@@H](C)O [pramlintide, ^25,28,29Pro-h-amylin]
- tendency to adsorb onto glass [2]: does not have a tendency to adsorb onto the glass
